How the values were obtained:
[1] = tested on: zebrafish (Danio rerio, AB strain) embryos; assay: Zebrafish embryo acute toxicity, percentage of healthy larvae; details: mean±SD
[2] = tested on: zebrafish (Danio rerio, AB strain) embryos; assay: Zebrafish embryo acute toxicity, mortality (OECD C.15); type: in vivo; details: for Mortality (dead larvae with respect to the total): 3 days
Protocol: 30 control animals treated with dilution water and with daily replacement until the end of the assay.
30 animals treated with compound NST0060 (3 embryos for every ten replicates) diluted in dilution water at doses between 1 and 100 mg/Kg and with daily replacement of the substance during the days that the assay lasted.
After the time of exposure to the substances under study, the mortality record of the larvae was determined, results being shown in Table 2.

[3] = tested on: zebrafish (Danio rerio, AB strain) embryos; assay: Zebrafish embryo cardiotoxicity, heart rate; details: 72 hpt
[4] = tested on: human neuroblastoma SK-N-MC cells; assay: Inhibition of DNA fragmentation (sub-G1, flow cytometry) in camptothecin cell model of apoptosis; type: cell-based; details: 50 μM, positive control; 50 μM CPT
Protocol: (§1) The assay was performed on human neuroblastoma SK-N-MC cells in culture, maintained as described in section 2.1.
The inhibition caused by compound NST0060 with respect to apoptosis caused by treatment with camptothecin (CPT), which inhibits the topoisomerase I enzyme, prevents DNA duplication and triggers apoptotic cell death. These cells, not exceeding 15 passages, were seeded on 6-well plates treated for adherent cells with a cell concentration of 7×10^5 cells/well; 2 wells of the plate were seeded for each assay condition.
After 24 hours of cell incubation (at 37° C. and 5% CO2), cell pretreatment was performed with 10 and 40 μM of NST0060 for 24 hours; they were subsequently treated with 50 μM CPT for 6 hours. Furthermore, Z-VAD-fmk at 50 μM was used as positive control for inhibition.
After treatment, the cells were collected along with their culture medium and centrifuged at 300×g for 5 minutes. The medium was removed, a washing was performed with PBS and the cells were fixed for 2 minutes with 500 μl of 70% ethanol at −20° C. […] After this time they were analyzed by flow cytometry, comparing the fluorescence of propidium iodide with respect to the amount of DNA. The percentage of apoptosis was measured on the sub-G1 region of each of the conditions.

caspase 3/7 = assay: Inhibition of activation of caspase 3/7 in camptothecin cell model of apoptosis; type: cell-based, human; details: 50 μM, positive control; 50 μM CPT 6 hours
Protocol: as §1
The induction of apoptosis on the cells in culture was performed with camptothecin (CPT), which triggers the activation of cell apoptosis. Apoptosis was quantified by means of the measurement of the activation of effector caspases, caspase 3 or caspase 7, for which a kit for the fluorometric detection of active caspase 3/7 (Apo-ONE® Homogeneous Caspase-3/7, Promega) was used. Active caspases 3 or 7 of the cells cause the rupture of a substrate, which leads to fluorescence emission, which is read by means of a fluorometer. The effect of the pretreatment of compound NST0060 at 10 and 40 μM on the activation of caspase 3/7 produced by 50 μM of camptothecin (CPT) in the SK-N-MC cells was thus analyzed. These cells, not exceeding 15 passages, were seeded on 96-well plates treated for adherent cells with a cell concentration of 5×10^4 cells/well; 3 wells of the plate were seeded for each assay condition.
After 24 hours of cell incubation (at 37° C. and 5% CO2), the pretreatment with NST0060 at 10 and 40 μM was performed.
The cells were incubated (at 37° C. and 5% CO2) with these treatments for 6 hours, after which cell lysis buffer and the caspase substrate at the concentrations specified by the manufacturer were added; it was incubated at room temperature for 30 minutes and then frozen at −20° C. overnight. Fluorescence was measured the next day (499/521 nm, Exci/Emi).

CCC(C)(C)C(=O)O[C@H]1C[C@@H](C)C=C2C=C[C@H](C)[C@H](CC[C@@H]3C[C@@H](O)CC(=O)O3)[C@H]21 [simvastatin, reference compound]
percentage of healthy larvae ([1]; dose of 1 mg/Kg): 50.0±22.4%
percentage of healthy larvae ([1]; dose of 3 mg/Kg): 50.0±22.4%
Mortality (dead larvae with respect to the total) ([2]; Dose 1 mg/kg): 0/30
Mortality (dead larvae with respect to the total) ([2]; Dose 3 mg/kg): 0/30
Mortality (dead larvae with respect to the total) ([2]; Dose 10 mg/kg): 16/30
Mortality (dead larvae with respect to the total) ([2]; Dose 30 mg/kg): 30/30
Mortality (dead larvae with respect to the total) ([2]; Dose 100 mg/kg): 30/30
deaths out of 30 animals ([2]; dose of 10 mg/Kg, 72 h): 16
heart rate with respect to the controls ([3]; dose of 3 mg/Kg): significant decrease of the heart rate
heart rate with respect to the controls ([3]; dose of 10 mg/Kg): significant decrease of the heart rate

Z-VAD-fmk [reference compound]
inhibition of apoptosis (DNA fragmentation) caused by CPT [4]: specifically inhibited apoptosis caused by CPT
inhibition of the activation of caspase 3/7 (caspase 3/7): completely inhibited
